Data from US20230027198A1 (The Rockefeller University, priority 2019, published 2023).

Target: T1, ENL YEATS domain (6×HIS ENL YEATS Domain) binding to H3K9cr peptide (Homo sapiens, UniProt Q03111)
T1 construct: aa1-150; EpiCypher, 15-0069; purchased EpiCypher 15-0069
T1 sequence (Q03111 1-150): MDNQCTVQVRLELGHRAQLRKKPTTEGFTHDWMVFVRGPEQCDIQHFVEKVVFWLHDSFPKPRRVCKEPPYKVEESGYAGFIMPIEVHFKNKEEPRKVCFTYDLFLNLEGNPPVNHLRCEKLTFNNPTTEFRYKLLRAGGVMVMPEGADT
Assay: TR-FRET ENL Screening Assay, FRET Assay Protocol 1
Conditions: H3K9cr peptide (aa1-20)
Description: Compounds of the invention were dissolved in DMSO at a concentration of 3 mM with subsequent dilutions in assay buffer (50 mM HEPES PH7.0, 150 mM NaCl, 0.05% BSA, 0.2% Pluronic F-127) such that the assay contained 1% DMSO. […] Low control (LC) wells received 5 uL of assay buffer instead of ENL protein. […] Compound concentration response curves were performed in duplicate over the concentration range of 0.15 nM-30 uM. The response at each compound concentration minus the LC value was converted to percent inhibition of the vehicle control group response (HC-LC). The relationship between the % inhibition and the compound concentration was analyzed using a four parameter logistic equation to estimate lower and upper asymptotes, the compound concentration producing 50% inhibition (IC50 value) and the slope at the mid-point location.

Row | IC50 [nM] | SMILES
1 | 465 | Cc1noc2ccc(C(=O)Nc3cc4[nH]c(CN5CCC[C@@H]5C)cc4cn3)cc12 [Example 2, 3-methyl-N-(2-[[(2S)-2-methylpyrrolidin-1-yl]methyl]-1H-pyrrolo[3,2-c]pyridin-6-yl)-1,2-benzoxazole-5-carboxamide]
2 | 884 | Cc1nc2cc(C(=O)Nc3cc4[nH]c(CN5CCC[C@@H]5C)cc4cn3)ccc2o1 [Example 3, 2-methyl-N-(2-[[(2S)-2-methylpyrrolidin-1-yl]methyl]-1H-pyrrolo[3,2-c]pyridin-6-yl)-1,3-benzoxazole-5-carboxamide]
3 | 569 | Cc1nc2ccc(C(=O)Nc3cc4[nH]c(CN5CCC[C@@H]5C)cc4cn3)cc2o1 [Example 4]
4 | 245 | Cc1c2ccc(C(=O)Nc3cc4[nH]c(CN5CCC[C@@H]5C)cc4cn3)cc2nn1C [Example 8]
5 | 1780 | CC(c1ccc(C(=O)Nc2cc3[nH]c(CN4CCC[C@@H]4C)cc3cn2)cc1)c1ccccn1 (stereo partly drawn) [Example 10, N-(2-[[(2S)-2-methylpyrrolidin-1-yl]methyl]-1H-pyrrolo[3,2-c]pyridin-6-yl)-4-[1-(pyridin-2-yl)ethyl]benzamide]
6 | 263 | C[C@H]1CCCN1Cc1cc2cnc(NC(=O)c3ccc4ncccc4c3)cc2[nH]1 [Example 15]
7 | 166 | C[C@H]1CCCN1Cc1cc2cnc(NC(=O)c3ccc(-c4cnn(CCO)c4)cc3)cc2[nH]1 [Example 20, 4-[1-(2-hydroxyethyl)pyrazol-4-yl]-N-(2-[[(2S)-2-methylpyrrolidin-1-yl]methyl]-1H-pyrrolo[3,2-c]pyridin-6-yl)benzamide]
8 | 395 | C[C@H]1CCCN1Cc1cc2cnc(NC(=O)c3ccc4cc[nH]c(=O)c4c3)cc2[nH]1 [Example 25]
9 | 527 | CC(c1ccncc1)c1ccc(C(=O)Nc2cc3[nH]c(CN4CCC[C@@H]4C)cc3cn2)cc1 (stereo partly drawn) [Example 29, N-(2-[[(2S)-2-methylpyrrolidin-1-yl]methyl]-1H-pyrrolo[3,2-c]pyridin-6-yl)-4-[1-(pyridin-4-yl)ethyl]benzamide]
10 | 239 | C[C@H]1CCCN1Cc1cc2cnc(NC(=O)c3ccc4c(cnn4-c4ccncc4)c3)cc2[nH]1 [Example 37, N-(2-[[(2S)-2-methylpyrrolidin-1-yl]methyl]-1H-pyrrolo[3,2-c]pyridin-6-yl)-1-(pyridin-4-yl) indazole-5-carboxamide]
11 | 489 | C[C@H]1CCCN1Cc1cc2cnc(NC(=O)c3ccc4nccnc4c3)cc2[nH]1 [Example 38]
12 | 368 | C[C@H]1CCCN1Cc1cc2cnc(NC(=O)c3ccc4nnccc4c3)cc2[nH]1 [Example 39]
13 | 151 | C[C@H]1CCCN1Cc1cc2cnc(NC(=O)c3ccc(-c4cnn(C5CC5)c4)cc3)cc2[nH]1 [Example 49]
14 | 212 | C[C@H]1CCCN1Cc1cc2cnc(NC(=O)c3ccc(-n4ccnc4)cc3)cc2[nH]1 [Example 54]
15 | 295 | C[C@H]1CCCN1Cc1cc2cnc(NC(=O)c3ccc4nc(N)ccc4c3)cc2[nH]1 [Example 58]
16 | 513 | C[C@H]1CCCN1Cc1cc2cnc(NC(=O)c3ccc4nc(N)ncc4c3)cc2[nH]1 [Example 59]
17 | 325 | C[C@H]1CCCN1Cc1cc2cnc(NC(=O)c3ccc4c(=O)[nH]ccc4c3)cc2[nH]1 [Example 61]
18 | 137 | C[C@H]1CCCN1Cc1cc2cnc(NC(=O)c3ccc4cnccc4c3)cc2[nH]1 [Example 65]
19 | 622 | Cc1c[nH]c2cc(C(=O)Nc3cc4[nH]c(CN5CCC[C@@H]5C)cc4cn3)ccc12 [Example 68]
20 | 412 | CC1C(=O)Nc2cc(C(=O)Nc3cc4[nH]c(CN5CCC[C@@H]5C)cc4cn3)ccc21 (stereo partly drawn) [Example 69, 3-methyl-N-(2-[[(2S)-2-methylpyrrolidin-1-yl]methyl]-1H-pyrrolo[3,2-c]pyridin-6-yl)-2-oxo-1,3-dihydroindole-6-carboxamide]
21 | 511 | C[C@H]1CCCN1Cc1cc2cnc(NC(=O)c3ccc4[nH]nnc4c3)cc2[nH]1 [Example 79]
22 | 1900 | C[C@H]1CCCN1Cc1cc2cnc(NC(=O)c3ccc(C(=N)N)cc3)cc2[nH]1 [Example 80]
23 | 1200 | C[C@H]1CCCN1Cc1cc2cnc(NC(=O)c3ccc(CN)cc3)cc2[nH]1 [Example 81]
24 | 168 | C[C@H]1CCCN1Cc1cc2cnc(NC(=O)c3ccc4c(N)n[nH]c4c3)cc2[nH]1 [Example 83]

Continued, compound first:

Row | SMILES | IC50 [nM]
25 | COCC1CCN(Cc2cc3cnc(NC(=O)c4ccc5c(cnn5C)c4)cc3[nH]2)C1 (centres unmarked) [Example 9] | 283
26 | Cc1cnc(-c2ccc(C(=O)Nc3cc4[nH]c(CN5CCC[C@@H]5C)cc4cn3)c(F)c2)nc1 [Example 14, 2-fluoro-4-(5-methylpyrimidin-2-yl)-N-(2-[[(2S)-2-methylpyrrolidin-1-yl]methyl]-1H-pyrrolo[3,2-c]pyridin-6-yl)benzamide] | 1420
27 | C[C@H]1CCCN1Cc1cc2cnc(NC(=O)c3ccc4c(c3)OCC(=O)N4)cc2[nH]1 [Example 16, N-(2-[[(2S)-2-methylpyrrolidin-1-yl]methyl]-1H-pyrrolo[3,2-c]pyridin-6-yl)-3-oxo-2,4-dihydro-1,4-benzoxazine-7-carboxamide] | 1160
28 | C[C@H]1CCCN1Cc1cc2cnc(NC(=O)c3ccc4c(c3)OCC(=O)N4C)cc2[nH]1 [Example 17, 4-methyl-N-(2-[[(2S)-2-methylpyrrolidin-1-yl]methyl]-1H-pyrrolo[3,2-c]pyridin-6-yl)-3-oxo-2H-1,4-benzoxazine-7-carboxamide] | 441
29 | C[C@H]1CCCN1Cc1cc2cnc(NC(=O)c3ccc4c(c3)CNC(=O)C4)cc2[nH]1 [Example 26] | 435
30 | COCC#CCn1ncc2cc(C(=O)Nc3cc4[nH]c(CN5CCC[C@@H]5C)cc4cn3)ccc21 [Example 27, 1-(4-methoxybut-2-yn-1-yl)-N-(2-[[(2S)-2-methylpyrrolidin-1-yl]methyl]-1H-pyrrolo[3,2-c]pyridin-6-yl)indazole-5-carboxamide] | 258
31 | C[C@H]1CCCN1Cc1cc2cnc(NC(=O)c3ccc(-c4ccnn4C)cc3F)cc2[nH]1 [Example 31] | 864
32 | C[C@H]1CCCN1Cc1cc2cnc(NC(=O)c3ccc(-c4cn(C)nn4)cc3F)cc2[nH]1 [Example 33] | 418
33 | Cc1ccc(-c2ccc(C(=O)Nc3cc4[nH]c(CN5CCC[C@@H]5C)cc4cn3)c(F)c2)nn1 [Example 35] | 657
34 | Cc1cnnc(-c2ccc(C(=O)Nc3cc4[nH]c(CN5CCC[C@@H]5C)cc4cn3)c(F)c2)c1 [Example 36] | 669
35 | C[C@H]1CCCN1Cc1cc2cnc(NC(=O)c3ccc4c(c3)CCCN4C)cc2[nH]1 [Example 40, 1-methyl-N-(2-[[(2S)-2-methylpyrrolidin-1-yl]methyl]-1H-pyrrolo[3,2-c]pyridin-6-yl)-3,4-dihydro-2H-quinoline-6-carboxamide] | 2520
36 | C[C@H]1CCCN1Cc1cc2ncc(NC(=O)c3ccc(-c4cc[nH]n4)cc3F)cc2[nH]1 [Example 41] | 410
37 | C[C@H]1CCCN1Cc1cc2cnc(NC(=O)c3ccc(-c4cc[nH]n4)cc3F)cc2[nH]1 [Example 43, 2-fluoro-N-(2-[[(2S)-2-methylpyrrolidin-1-yl]methyl]-1H-pyrrolo[3,2-c]pyridin-6-yl)-4-(1H-pyrazol-3-yl)benzamide] | 699
38 | COc1cc(C(=O)Nc2cc3[nH]c(CN4CCC[C@@H]4C)cc3cn2)c(F)cc1-c1ccn[nH]1 [Example 44] | 760
39 | C[C@@H]1CCN1Cc1cc2cnc(NC(=O)c3ccc4c(cnn4C)c3)cc2[nH]1 [Example 45, 1-methyl-N-(2-[[(2R)-2-methylazetidin-1-yl]methyl]-1H-pyrrolo[3,2-c]pyridin-6-yl)indazole-5-carboxamide] | 2180
40 | C[C@H]1CCCN1Cc1cc2cnc(NC(=O)c3ccc4onc(C5CC5)c4c3)cc2[nH]1 [Example 53, 3-cyclopropyl-N-(2-[[(2S)-2-methylpyrrolidin-1-yl]methyl]-1H-pyrrolo[3,2-c]pyridin-6-yl)-1,2-benzoxazole-5-carboxamide] | 417
41 | C[C@H]1CCCN1Cc1cc2cnc(NC(=O)c3nc4ccc(O)cc4[nH]3)cc2[nH]1 [Example 63] | 1960
42 | C[C@H]1CCCN1Cc1cc2cnc(NC(=O)c3nc4cc(N)ccc4[nH]3)cc2[nH]1 [Example 64] | 1350
43 | COCCn1cc(-c2ccc(C(=O)Nc3cc4[nH]c(CN5CCC[C@@H]5C)cc4cn3)nc2)cn1 [Example 71] | 1040
44 | COCCn1cc(-c2ccc(C(=O)Nc3cc4[nH]c(CN5CCC[C@@H]5C)cc4cn3)c(F)c2)cn1 [Example 72] | 364
45 | C[C@H]1CCCN1Cc1cc2cnc(NC(=O)c3ncc(-c4cn[nH]c4)cc3F)cc2[nH]1 [Example 74] | 1090
46 | C[C@H]1CCCN1Cc1cc2cnc(NC(=O)c3ccc(-n4ccnc4)cn3)cc2[nH]1 [Example 75] | 2340
47 | C[C@H]1CCCN1Cc1cc2cnc(NC(=O)c3ccc(-c4c[nH]cn4)cn3)cc2[nH]1 [Example 76] | 1590
48 | C[C@H]1CCCN1Cc1cc2cnc(NC(=O)c3ccc(-c4cn[nH]c4)cn3)cc2[nH]1 [Example 77] | 963
49 | C[C@H]1CCCN1Cc1cc2cnc(NC(=O)c3cc4cnccc4cn3)cc2[nH]1 [Example 78] | 145
50 | C[C@H]1CCCN1Cc1cc2cnc(NC(=O)c3ccc4c(N)nn(C5CC5)c4c3)cc2[nH]1 [Example 84] | 177
